Test results reported in ChEMBL document CHEMBL3588847, “1,5-Diarylpyrazole and vanillin hybrids: Synthesis, biological activity and DFT studies” (Eur J Med Chem, 2015).
Calls of active or inactive are those of the source. The calls are words filed in the database; no cut-off is given here.

Key:
[1] = Antioxidant activity assessed as DPPH radical scavenging activity; format: physicochemical
[2] = Antioxidant activity assessed as AAPH radical scavenging activity by measuring Trolox equivalents after 90 mins by fluorescein probe based ORAC assay; format: physicochemical; details: 1.5 h
[3] = test system: Rattus norvegicus; test: Hypoglycemic effect in Wistar rat model of streptozotocin-induced type-2 diabetes mellitus assessed as reduction in blood glucose level at 5 mg/kg, ig after 7 hrs; format: functional, organism-based
[4] = test system: Rattus norvegicus; test: Hypoglycemic effect in Wistar rat model of streptozotocin-induced type-2 diabetes mellitus assessed as reduction in blood glucose level at 50 mg/kg, ig after 7 hrs; format: functional; details: po
[5] = Antioxidant activity assessed as DPPH radical scavenging activity at 20 µg/ml; format: physicochemical
[6] = Antioxidant activity assessed as DPPH radical scavenging activity at […]; format: physicochemical
[7] = Antioxidant activity assessed as DPPH radical scavenging activity at 20 mg/ml; format: physicochemical

SMILES | EC50 [1] [mM] | Activity [2] [g⁻¹] | also measured
COc1cc(/C=N/NC(=O)c2nn(-c3ccccc3)c(-c3ccccc3)c2C)ccc1O | 2.46 | 611 | 
COc1ccc(Cl)cc1C(=O)NCCc1ccc(S(=O)(=O)NC(=O)NC2CCCCC2)cc1 |  |  | Activity [3]: Active
COc1cc(/C=N/NC(=O)c2nn(-c3ccnc4cc(Cl)ccc34)c(-c3ccc(F)cc3)c2C)ccc1O | 6.45 |  | 
COc1cc(C(=O)O)ccc1O [VANILLIC ACID] | 65.8 | 2979 | 
COc1cc(/C=N/NC(=O)c2nn(-c3ccc(F)cc3F)c(-c3ccc(F)cc3)c2C)ccc1O | 3.54 | 891 | 
COc1cc(/C=N/NC(=O)c2nn(-c3ccc(Cl)cc3Cl)c(-c3ccccc3)c2C)ccc1O | 2.99 | 1076 | inhibition in vivo at 50 mg/kg [4]: 26.6%
COc1cc(C=O)ccc1O [VANILLIN] |  |  | inhibition (INH) [5]: 7%; inhibition (INH) [6]: 75%
O=C1O[C@H]([C@@H](O)CO)C(O)=C1O [ASCORBIC ACID] | 2.07 |  | 
Cc1c(C(=O)O)nn(-c2ccc(Cl)cc2Cl)c1-c1ccc(Cl)cc1 |  |  | inhibition (INH) [7]: 17%

Continued, in another order:

EC50 [1] [mM] | Activity [2] [g⁻¹] | SMILES | also measured
4.24 | 401 | COc1cc(/C=N/NC(=O)c2nn(-c3ccc(Cl)cc3Cl)c(-c3ccc(C(F)(F)F)cc3)c2C)ccc1O | inhibition in vivo at 50 mg/kg [4]: 35.3%
4.59 |  | COc1cc(/C=N/NC(=O)c2nn(-c3ccnc4cc(Cl)ccc34)c(-c3ccc(Cl)cc3)c2C)ccc1O | 
2.9 | 993 | COc1cc(/C=N/NC(=O)c2nn(-c3ccc(F)cc3F)c(-c3ccc(C(F)(F)F)cc3)c2C)ccc1O | 
2.34 | 867 | COc1cc(/C=N/NC(=O)c2nn(-c3ccc(C(F)(F)F)cc3)c(-c3ccc(Cl)cc3)c2C)ccc1O | 
2.91 |  | COc1cc(/C=N/NC(=O)c2nn(-c3ccc(C(F)(F)F)cc3)c(-c3ccc(Br)cc3)c2C)ccc1O | 
3.55 | 634 | COc1cc(/C=N/NC(=O)c2nn(-c3ccc(Cl)cc3Cl)c(-c3ccc(Cl)cc3)c2C)ccc1O | inhibition in vivo at 50 mg/kg [4]: 64.9%
6.92 | 525 | COc1cc(/C=N/NC(=O)c2nn(-c3ccc(F)c(Cl)c3)c(-c3ccc(F)cc3)c2C)ccc1O | 
2.6 | 432 | COc1cc(/C=N/NC(=O)c2nn(-c3ccc(Cl)c(Cl)c3)c(-c3ccc(Cl)cc3)c2C)ccc1O | inhibition in vivo at 50 mg/kg [4]: 33.3%
3.56 | 882 | COc1cc(/C=N/NC(=O)c2nn(-c3ccc(F)c(Cl)c3)c(-c3ccc(Cl)cc3)c2C)ccc1O | 
